Assay results as given in patent publication US8188127B2, “Microbicidal composition” (Rohm and Haas Company, priority 2007, dated 2012).
Each block holds one compound with its values, some of them ahead of it.

How the values were obtained:
Format in all cases: cell-based
[1] = test system: A. niger ATCC # 16404; experiment: Microtiter plate MIC / synergy test (Kull synergy index), mold, PDB medium; conditions: for Ca: MIC of TCMTB alone: component alone; for Ca: MIC of first component (A) alone (QA): PDB medium, 25° C.; for Ca: ppm AI of first component (A) alone (MIC, QA): A. niger
Description: (§1) One measure of synergism is the industrially accepted method described by Kull, F. C.; Eisman, P. C.; Sylwestrowicz, H. D. and Mayer, R. L., in Applied Microbiology 9:538-541 (1961), using the ratio determined by the formula: Qa/QA+Qb/QB=Synergy Index (“SI”) wherein: • QA=concentration of compound A (first component) in ppm, acting alone, which produced an end point (MIC of Compound A). • Qa=concentration of compound A in ppm, in the mixture, which produced an end point. • QB=concentration of compound B (second component) in ppm, acting alone, which produced an end point (MIC of Compound B). • Qb=concentration of compound B in ppm, in the mixture, which produced an end point.
(§2) When the sum of Qa/QA and Qb/QB is greater than one, antagonism is indicated. […] The lower the SI, the greater the synergy shown by that particular mixture. The minimum inhibitory concentration (MIC) of a microbicide is the lowest concentration tested under a specific set of conditions that prevents the growth of added microorganisms.
(§3) Synergy tests were conducted using standard microtiter plate assays with media designed for optimal growth of the test microorganism. Minimal salt medium supplemented with 0.2% glucose and 0.1% yeast extract (M9GY medium) was used for testing bacteria; Potato Dextrose Broth (PDB medium) was used for testing yeast and mold. In this method, a wide range of combinations of microbicides was tested by conducting high resolution MIC assays in the presence of various concentrations of MBIT. High resolution MICs were determined by adding varying amounts of microbicide to one column of a microtitre plate and doing subsequent […] dilutions using an automated liquid handling system to obtain a series of endpoints ranging from 2 ppm to 10,000 ppm active ingredient.
(§4) The synergy of the combinations of the present invention was determined against several microorganisms, as described in the Tables below. The bacteria were used at a concentration of about 5×10^6 bacteria per mL and the yeast and mold at 5×10^5 fungi per mL. These microorganisms are representative of natural contaminants in many consumer and industrial applications. […] (yeast and mold) or 30° C. (bacteria).
(§5) In each test, Second Component (B) was MBIT and the First Component (A) was the other commercial microbicide.

[2] = test system: C. albicans ATCC # 10231; experiment: Microtiter plate MIC / synergy test (Kull synergy index), yeast, PDB medium; conditions: for Ca: MIC of TCMTB alone: component alone; for Ca: MIC of first component (A) alone (QA): PDB medium, 25° C.; for Ca: ppm AI of first component (A) alone (MIC, QA): C. albicans
Description: as §1, §2, §3, §4, §5

[3] = test system: Ps. aeruginosa ATCC # 9027; experiment: Microtiter plate MIC / synergy test (Kull synergy index), bacteria, M9GY medium; conditions: for Ca: ppm AI of first component (A) alone (MIC, QA): Ps. aeruginosa
Experimental: as §2, §3
The bacteria were used at a concentration of about 5×10^6 bacteria per mL and the yeast and mold at 5×10^5 fungi per mL. These microorganisms are representative of natural contaminants in many consumer and industrial applications. […] (yeast and mold) or 30° C. (bacteria).
as §5

[4] = test system: S. aureus ATCC # 6538; experiment: as above; conditions: for Ca: MIC of first component (A) alone (QA): M9GY medium, 30° C.; for Ca: ppm AI of first component (A) alone (MIC, QA): S. aureus
Description: as §1, §2, §3, §4, §5

[5] = A. niger ATCC # 16404, contact time 3 days
[6] = A. niger ATCC # 16404, contact time 7 days
[7] = C. albicans ATCC # 10231, contact time 48 hrs
[8] = C. albicans ATCC # 10231, contact time 72 hrs

Ca: MIC of TCMTB alone [1, 5]: 3 ppm AI
Ca: MIC of TCMTB alone [1, 6]: 8.75 ppm AI
Ca: MIC of TCMTB alone [2, 7]: 4.25 ppm AI
Ca: MIC of TCMTB alone [2, 8]: 5.25 ppm AI
Ca: MIC of TCMTB alone ([3]; Ps. aeruginosa ATCC # 9027, contact time 48 hrs, component alone): 212.5 ppm AI
Ca: MIC of TCMTB alone ([4]; S. aureus ATCC # 6538, contact time 24 hrs, component alone): 26.25 ppm AI
SMILES: N#CSCSc1nc2ccccc2s1 [TCMTB]

Ca: MIC of first component (A) alone (QA) [1, 5]: 650 ppm AI
Ca: MIC of first component (A) alone (QA) [1, 6]: 875 ppm AI
Ca: MIC of first component (A) alone (QA) [2, 7]: 65 ppm AI
Ca: MIC of first component (A) alone (QA) [2, 8]: 87.5 ppm AI
Ca: MIC of first component (A) alone (QA) ([3]; Ps. aeruginosa ATCC # 9027, contact time 48 hrs, M9GY medium, 30° C.): >11000 ppm AI
Ca: MIC of first component (A) alone (QA) ([4]; S. aureus ATCC # 6538, contact time 24 hrs): 425 ppm AI
Ca: MIC of first component (A) alone (QA) ([4]; S. aureus ATCC # 6538, contact time 48 hrs): 425 ppm AI
SMILES: CCCCCCCC(=O)O [Caprylic acid]

Ca: ppm AI of first component (A) alone (MIC, QA) ([1]; contact time 3 days): 425 ppm AI
Ca: ppm AI of first component (A) alone (MIC, QA) ([1]; contact time 7 days): 650 ppm AI
Ca: ppm AI of first component (A) alone (MIC, QA) ([2]; contact time 48 hrs): 875 ppm AI
Ca: ppm AI of first component (A) alone (MIC, QA) ([2]; contact time 72 hrs): 875 ppm AI
Ca: ppm AI of first component (A) alone (MIC, QA) ([3]; contact time 24 hrs): 55 ppm AI
Ca: ppm AI of first component (A) alone (MIC, QA) ([3]; contact time 48 hrs): 55 ppm AI
Ca: ppm AI of first component (A) alone (MIC, QA) ([4]; contact time 24 hrs): 55 ppm AI
Ca: ppm AI of first component (A) alone (MIC, QA) ([4]; contact time 48 hrs): 55 ppm AI
SMILES: OCCN1CN(CCO)CN(CCO)C1 [BIOBAN GK, hexahydro-1,3,5-tris(2-hydroxyethyl)-s-triazine]
